Measured values reported in patent US11214803B2, “Modulators of YAP1 expression” (Ionis Pharmaceuticals, Inc., priority 2019, dated 2022).
Marks after values point to notes of the source that are not given here. Strand notation (5' to 3'): a small letter for the sugar, then the base; units joined by * are phosphorothioate-linked, units joined directly phosphodiester-linked; [ ] holds rarer units or linkages, { } end groups; capitals alone tell only the bases. k = constrained ethyl (cEt); [5mC] = 5-methylcytosine; d = 2'-deoxy (DNA)

System: Yap1 mRNA
Test: Antisense inhibition of human Yap1 in A-431 cells by cEt gapmers, single dose (Example 4, RTS4814)
Format: cell-based
Conditions: Table 14; A-431 cells, 5,000 cells per well, free uptake, 2,000 nM, approximately 48 hours; RTS4814; normalized to RIBOGREEN; Yap1 mRNA relative to untreated control; * = targets amplicon region of primer probe set
Method: Modified oligonucleotides were designed to target a Yap1 nucleic acid and were tested for their effect on Yap1 mRNA level in vitro. The modified oligonucleotides were tested in a series of experiments that had similar culture conditions. Cultured A-431 cells at a density of 5,000 cells per well were treated using free uptake with 2,000 nM of modified oligonucleotide. After a treatment period of approximately 48 hours, RNA was isolated from the cells and Yap1 mRNA levels were measured by quantitative real-time RTPCR. Human primer probe set RTS4814 was used to measure mRNA levels. Yap1 mRNA levels were normalized to total RNA content, as measured by RIBOGREEN®. Results are presented in the tables below as percent control of the amount of Yap1 mRNA relative to untreated control cells (% UTC). The modified oligonucleotides with percent control values marked with an asterisk (*) target the amplicon region of the primer probe set. Additional assays may be used to measure the potency and efficacy of the modified oligonucleotides targeting the amplicon region.
The newly designed modified oligonucleotides in the Tables below were designed as 3-10-3 cEt gapmers. The gapmers are 16 nucleosides in length, wherein the central gap segment comprises of ten 2′-deoxynucleosides and is flanked by wing segments on the 5′ direction and the 3′ direction comprising three nucleosides each. Each nucleoside in the 5′ wing segment and each nucleoside in the 3′ wing segment has a cEt sugar modification. The internucleoside linkages throughout each gapmer are phosphorothioate (P═S) linkages. All cytosine residues throughout each gapmer are 5-methylcytosines.
“Start site” indicates the 5′-most nucleoside to which the gapmer is targeted in the human gene sequence. “Stop site” indicates the 3′-most nucleoside to which the gapmer is targeted human gene sequence. […] Activity of the modified oligonucleotide may be defined in a different experiment.

With “1076064 (kT*kA*kT*dG*dA*dA*d[5mC]*dA*dA*dT*dG*dT*dA*k[5mC]*kT*k[5mC]; antisense) [Compound 1076064]” as the substance, how does the “YAP1 (% UTC)” value read?
The value was 5 % UTC.

“1074336 (antisense k[5mC]*k[5mC]*kA*dG*dT*dG*dT*dT*dG*dG*dT*dA*dA*k[5mC]*kT*kG) [Compound 1074336]” was tested. Which “YAP1 (% UTC)” value did it give?
Its value is 97 % UTC.

For “1074720 (antisense kG*kA*kA*dG*dA*dT*d[5mC]*dT*d[5mC]*d[5mC]*dA*dT*dA*kT*kT*k[5mC]) [Compound 1074720]”, which “YAP1 (% UTC)” value is on record?
The value was 58 % UTC.

“1076480 (antisense kG*kT*kA*dA*dA*dT*dA*dT*d[5mC]*d[5mC]*dA*dT*dT*kA*k[5mC]*k[5mC]) [Compound 1076480]” was tested. Which “YAP1 (% UTC)” value did it give?
Its value is 72 % UTC.

“1074144 (antisense kA*kG*k[5mC]*dG*dG*d[5mC]*dG*dA*d[5mC]*dG*dG*d[5mC]*dT*kG*k[5mC]*kG) [Compound 1074144]” was tested. Which “YAP1 (% UTC)” value did it give?
The value was 92 % UTC.

How did the “YAP1 (% UTC)” value turn out when “1076000 (k[5mC]*k[5mC]*kT*dA*dA*dT*dA*dT*dG*dA*d[5mC]*dT*d[5mC]*k[5mC]*kT*kT; antisense) [Compound 1076000]” was run?
Its value is 4 % UTC.

Same assay, conditions: Table 15; A-431 cells, 5,000 cells per well, free uptake, 2,000 nM, approximately 48 hours; RTS4814; normalized to RIBOGREEN; Yap1 mRNA relative to untreated control; * = targets amplicon region of primer probe set

For “1075905 (k[5mC]*k[5mC]*kT*dG*dA*dA*d[5mC]*dA*d[5mC]*dA*dG*dG*dA*kG*kT*kA; antisense) [Compound 1075905]”, which “YAP1 (% UTC)” value is on record?
The value was 43 % UTC.

“1075777 (kT*kA*kT*dG*dT*dG*dA*dT*dA*dT*dG*dG*dA*kT*kT*k[5mC]; antisense) [Compound 1075777]” was tested. Which “YAP1 (% UTC)” value did it give?
The value was 12 % UTC.

“1075105 (antisense kA*kA*kT*dT*dA*dT*dA*dA*dG*dG*dT*d[5mC]*d[5mC]*kT*kA*k[5mC]) [Compound 1075105]” was tested. Which “YAP1 (% UTC)” value did it give?
Its value is 42 % UTC.

“1076225 (kA*kT*kA*dT*dA*dA*dA*d[5mC]*d[5mC]*dT*dT*dG*d[5mC]*kT*kA*k[5mC]; antisense) [Compound 1076225]” was tested. Which “YAP1 (% UTC)” value did it give?
Its value is 66 % UTC.

For “1075681 (kT*kA*kA*dT*dT*dA*dT*dT*dA*d[5mC]*d[5mC]*d[5mC]*d[5mC]*kT*kT*k[5mC]; antisense) [Compound 1075681]”, which “YAP1 (% UTC)” value is on record?
The value was 37 % UTC.

Same assay, conditions: Table 16; A-431 cells, 5,000 cells per well, free uptake, 2,000 nM, approximately 48 hours; RTS4814; normalized to RIBOGREEN; Yap1 mRNA relative to untreated control cells

How did the “YAP1 (% UTC)” value turn out when “1076450 (k[5mC]*kT*kT*dG*dA*dA*dT*dA*dG*d[5mC]*dT*dA*dT*kG*kT*kG; antisense) [Compound 1076450]” was run?
The value was 13 % UTC.

Which “YAP1 (% UTC)” value does the source give for “1075970 (kG*k[5mC]*kT*dT*dA*dA*dA*dA*dG*dG*dA*d[5mC]*dA*kG*kT*kA; antisense) [Compound 1075970]” here?
Its value is 34 % UTC.

“1075458 (antisense k[5mC]*k[5mC]*kA*d[5mC]*dA*dA*dT*dA*dT*dA*d[5mC]*dT*d[5mC]*k[5mC]*kA*kA) [Compound 1075458]” was tested. Which “YAP1 (% UTC)” value did it give?
Its value is 7 % UTC.

For “1075074 (antisense kT*kA*kT*dA*dG*dT*dA*dA*dG*dA*d[5mC]*dT*dA*kA*kT*k[5mC]) [Compound 1075074]”, which “YAP1 (% UTC)” value is on record?
Its value is 105 % UTC.

With “1074434 (antisense kA*k[5mC]*kT*dT*d[5mC]*dT*dA*dA*dG*dT*d[5mC]*dT*dG*kA*kG*kT) [Compound 1074434]” as the substance, how does the “YAP1 (% UTC)” value read?
The value was 51* % UTC.

With “1076386 (kA*kG*kT*dT*dA*dT*dA*dA*d[5mC]*dA*dG*dT*dG*kT*kA*kA; antisense) [Compound 1076386]” as the substance, how does the “YAP1 (% UTC)” value read?
The value was 7 % UTC.

Same assay, conditions: Table 17; A-431 cells, 5,000 cells per well, free uptake, 2,000 nM, approximately 48 hours; RTS4814; normalized to RIBOGREEN; Yap1 mRNA relative to untreated control cells

For “1074403 (antisense kG*k[5mC]*kT*dT*dA*dT*dG*dG*dA*dA*dA*dT*dT*kT*k[5mC]*k[5mC]) [Compound 1074403]”, which “YAP1 (% UTC)” value is on record?
The value was 9 % UTC.

How did the “YAP1 (% UTC)” value turn out when “1075011 (antisense kG*k[5mC]*kA*d[5mC]*dA*dA*dT*dA*dA*dT*d[5mC]*dG*dA*kA*k[5mC]*kA) [Compound 1075011]” was run?
The value was 44 % UTC.

How did the “YAP1 (% UTC)” value turn out when “1074691 (antisense k[5mC]*k[5mC]*k[5mC]*dT*d[5mC]*d[5mC]*d[5mC]*d[5mC]*d[5mC]*dT*dA*dA*dG*k[5mC]*kT*kA) [Compound 1074691]” was run?
Its value is 76 % UTC.

With “1074467 (k[5mC]*kA*k[5mC]*d[5mC]*dG*dA*d[5mC]*d[5mC]*d[5mC]*dT*dG*d[5mC]*d[5mC]*kA*kA*kA; antisense) [Compound 1074467]” as the substance, how does the “YAP1 (% UTC)” value read?
The value was 31 % UTC.

“1075459 (antisense kA*kA*k[5mC]*d[5mC]*dA*dA*dG*dG*dA*dT*dA*dG*dT*k[5mC]*kA*kT) [Compound 1075459]” was tested. Which “YAP1 (% UTC)” value did it give?
The value was 37 % UTC.

How did the “YAP1 (% UTC)” value turn out when “1075299 (kG*kA*kT*dA*dA*d[5mC]*d[5mC]*dA*dA*dT*dG*d[5mC]*dA*k[5mC]*k[5mC]*kA; antisense) [Compound 1075299]” was run?
The value was 21 % UTC.

With “1074243 (antisense kT*k[5mC]*kT*dG*dA*d[5mC]*d[5mC]*dA*dG*dA*dA*dG*dA*kT*kG*kT) [Compound 1074243]” as the substance, how does the “YAP1 (% UTC)” value read?
The value was 60 % UTC.

“1075523 (kA*kA*kT*dT*dA*dA*dG*dG*dG*d[5mC]*d[5mC]*d[5mC]*dA*k[5mC]*kA*kA; antisense) [Compound 1075523]” was tested. Which “YAP1 (% UTC)” value did it give?
Its value is 78 % UTC.

“1075715 (kG*kA*kA*dT*dT*dA*d[5mC]*dA*dA*dT*d[5mC]*dA*dA*k[5mC]*k[5mC]*kT; antisense) [Compound 1075715]” was tested. Which “YAP1 (% UTC)” value did it give?
The value was 12 % UTC.

Same assay, conditions: Yap1 mRNA remaining as percent of untreated control; 3-10-3 cEt gapmers; A-431 cells; Table 36

“1074198 (antisense kT*kT*kG*d[5mC]*d[5mC]*d[5mC]*dG*dG*dG*dT*d[5mC]*d[5mC]*dG*kG*kA*k[5mC]) [compound 1074198]” was tested. Which “YAP1 (% UTC)” value did it give?
Its value is 112 % UTC.

For “1075510 (kG*kA*kA*dT*dA*dA*d[5mC]*dA*d[5mC]*dA*dT*dA*dA*kT*k[5mC]*k[5mC]; antisense) [compound 1075510]”, which “YAP1 (% UTC)” value is on record?
Its value is 83 % UTC.

Same assay, conditions: Yap1 mRNA remaining as percent of untreated control; 3-10-3 cEt gapmers; A-431 cells; Table 37

With “1075991 (kA*kT*kA*dT*dA*dG*dG*dA*d[5mC]*d[5mC]*dA*d[5mC]*dG*kA*k[5mC]*kT; antisense) [compound 1075991]” as the substance, how does the “YAP1 (% UTC)” value read?
Its value is 62 % UTC.

With “1075287 (antisense kT*kA*kT*dT*dA*d[5mC]*dG*dG*dA*d[5mC]*dA*dG*dA*kA*kG*kT) [compound 1075287]” as the substance, how does the “YAP1 (% UTC)” value read?
Its value is 58 % UTC.

Which “YAP1 (% UTC)” value does the source give for “1074135 (k[5mC]*k[5mC]*kG*d[5mC]*dG*dG*d[5mC]*d[5mC]*d[5mC]*d[5mC]*dG*d[5mC]*dA*kT*k[5mC]*k[5mC]; antisense) [compound 1074135]” here?
The value was 91 % UTC.

For “1074423 (k[5mC]*kA*kA*dA*d[5mC]*dA*dG*dG*d[5mC]*dT*d[5mC]*dA*d[5mC]*kT*kT*k[5mC]; antisense) [compound 1074423]”, which “YAP1 (% UTC)” value is on record?
The value was 4* % UTC.

“1074935 (antisense kA*k[5mC]*kA*dG*dG*dA*dG*dA*d[5mC]*dT*dA*dT*dA*k[5mC]*kA*kA) [compound 1074935]” was tested. Which “YAP1 (% UTC)” value did it give?
The value was 80 % UTC.

How did the “YAP1 (% UTC)” value turn out when “1076343 (antisense kA*kG*kA*d[5mC]*dT*dA*dA*dA*dT*d[5mC]*dT*dT*d[5mC]*k[5mC]*k[5mC]*kT) [compound 1076343]” was run?
The value was 8 % UTC.

“1075031 (antisense kA*kT*kT*dT*dA*dA*dT*dA*dT*dT*d[5mC]*dG*dA*k[5mC]*kA*k[5mC]) [compound 1075031]” was tested. Which “YAP1 (% UTC)” value did it give?
Its value is 52 % UTC.

For “1075351 (antisense kA*kG*kA*dT*dT*dA*dA*dA*dG*d[5mC]*dT*d[5mC]*dA*kT*kT*kG) [compound 1075351]”, which “YAP1 (% UTC)” value is on record?
The value was 38 % UTC.

Which “YAP1 (% UTC)” value does the source give for “1076535 (kA*kT*kT*dT*dT*dT*dA*dG*d[5mC]*dT*d[5mC]*dG*d[5mC]*kA*kA*kT; antisense) [compound 1076535]” here?
The value was 28 % UTC.

How did the “YAP1 (% UTC)” value turn out when “1075799 (k[5mC]*k[5mC]*kT*d[5mC]*dA*dA*d[5mC]*dA*d[5mC]*dA*dT*dT*dT*kG*kA*kG; antisense) [compound 1075799]” was run?
Its value is 85 % UTC.

Same assay, conditions: table after Table 37, headed TABLE 32 (gapmers targeting SEQ ID NO.: 3); A-431 cells, free uptake, 2,000 nM, approximately 48 hours, RTS4814

How did the “YAP1 (% UTC)” value turn out when “1074880 (k[5mC]*kT*k[5mC]*d[5mC]*dT*dG*d[5mC]*d[5mC]*dG*dA*dA*dG*d[5mC]*kA*kG*kT; antisense) [compound 1074880]” was run?
The value was 101 % UTC.
